# Assay results published in patent publication US20260152504A1, “PYRIMIDINE SGC STIMULATORS” (Tisento Therapeutics Inc., priority 2022, published 2026).
# Target: T1, sGC (Rattus norvegicus, UniProt P20595)
# T1 construct: Rat primary neurons were isolated from timed-pregnant female Sprague-Dawley (SD) rats; endogenous in cells; host or cells: rat primary neurons (Sprague-Dawley)
# T1 sequence (P20595 1-619): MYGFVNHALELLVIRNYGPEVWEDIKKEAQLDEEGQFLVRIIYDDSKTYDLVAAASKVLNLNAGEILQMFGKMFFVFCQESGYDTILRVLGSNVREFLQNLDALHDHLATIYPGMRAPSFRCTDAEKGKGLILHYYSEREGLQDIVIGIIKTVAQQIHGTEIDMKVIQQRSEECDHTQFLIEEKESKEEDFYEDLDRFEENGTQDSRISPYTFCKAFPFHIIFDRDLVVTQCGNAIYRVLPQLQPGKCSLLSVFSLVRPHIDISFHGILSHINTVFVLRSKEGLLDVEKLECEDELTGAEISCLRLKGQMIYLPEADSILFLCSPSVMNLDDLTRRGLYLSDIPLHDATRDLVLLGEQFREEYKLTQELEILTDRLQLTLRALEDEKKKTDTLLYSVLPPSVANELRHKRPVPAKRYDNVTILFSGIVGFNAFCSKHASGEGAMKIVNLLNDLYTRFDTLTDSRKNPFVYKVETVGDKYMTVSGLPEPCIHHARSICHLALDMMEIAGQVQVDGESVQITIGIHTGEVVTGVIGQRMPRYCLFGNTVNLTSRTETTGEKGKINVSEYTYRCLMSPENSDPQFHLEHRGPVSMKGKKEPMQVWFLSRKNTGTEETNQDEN
# T1 sequence (P19686 1-690 partner): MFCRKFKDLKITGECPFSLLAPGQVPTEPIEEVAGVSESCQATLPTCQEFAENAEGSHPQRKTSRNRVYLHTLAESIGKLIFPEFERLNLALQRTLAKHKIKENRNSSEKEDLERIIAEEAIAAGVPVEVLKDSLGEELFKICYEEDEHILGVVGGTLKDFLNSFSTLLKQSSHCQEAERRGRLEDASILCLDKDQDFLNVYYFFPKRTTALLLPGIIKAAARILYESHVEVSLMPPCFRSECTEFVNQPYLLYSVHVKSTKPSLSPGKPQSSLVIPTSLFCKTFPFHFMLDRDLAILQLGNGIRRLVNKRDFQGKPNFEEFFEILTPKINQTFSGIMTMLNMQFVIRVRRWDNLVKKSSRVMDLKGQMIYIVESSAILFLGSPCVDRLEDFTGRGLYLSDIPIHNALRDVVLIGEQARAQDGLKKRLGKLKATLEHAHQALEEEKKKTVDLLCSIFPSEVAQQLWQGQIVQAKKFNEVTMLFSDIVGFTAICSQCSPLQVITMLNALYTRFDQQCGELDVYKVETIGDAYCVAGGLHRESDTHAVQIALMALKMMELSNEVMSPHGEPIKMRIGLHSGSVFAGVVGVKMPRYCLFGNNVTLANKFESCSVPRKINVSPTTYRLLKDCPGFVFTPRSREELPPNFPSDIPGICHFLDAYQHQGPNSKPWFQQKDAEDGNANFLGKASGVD
# Assay: cGMP measurement in rat primary neurons (neuronal-based cell assay)
# Details: rat primary neurons (Sprague-Dawley); 0.5 mM IBMX; test compound with fixed DETA (Diethylenetriamine NONOate); 20 min at 37° C.; cGMP by CatchPoint kit; read-out: sGC Neuron EC50
# Description: Example 2: cGMP Measurement in Rat Primary Neurons
# Rat primary neurons were isolated from timed-pregnant female Sprague-Dawley (SD) rats, washed once with HBSS with calcium and magnesium and incubated with a solution containing 0.5 mM 3-isobutyl-1-methylxanthine (IBMX) in HBSS (80 μL/well) at 37° C. for 15 min. Next, a 5× stock […] of test compound with a fixed concentration of DETA (Diethylenetriamine NONOate) was added to the wells to make x nM concentration for test compound solutions and a 30 µM concentration for DETA solution, where x was 1 of the following final concentrations: 0.029, 0.114, 0.460, 1.83, 7.32, 29.29, 117.2, 468.8, 1875, 7500 and 30,000 nM. Then, the cells were incubated for 20 min at 37° C. At the end of incubation, 100 μL lysis buffer (Molecular Devices) was added to cells. CatchPoint™ Cyclic-GMP Fluorescent Assay Kit was used with Molecular Devices' ID3 multi-mode plate reading. Sample cGMP concentrations were extrapolated from standard curve using Softmax Pro 7 Software. A well-characterized, potent sGC stimulator was included in all assay runs and used as a positive control.
# Test compound (“agonist”) concentrations vs extrapolated cGMP concentrations (“response”) were plotted and analyzed using GraphPad Prism version 9.4.1. Curve fit was used for each dataset; non-linear log(agonist) vs. response-variable slope (four parameters). The EC50 is interpolated from the curve fit and is defined as the concentration at which the compound elicits 50% of its maximal response. When the experiment is carried out more than two times, the geometric mean is reported, otherwise the arithmetic mean is shown. To increase the accuracy of the EC50 calculations, top and bottom parameters were constrained when consistent with the observed data in a given assay run. For instance, in assay runs where the cGMP response values in the absence of test article were consistent across plates, an average across all of these wells was used as a lower constraint in the calculations. In assay runs where the maximal cGMP responses were consistent with that of the positive control, a top constraint equal to the maximal cGMP response of the positive control was applied. If there was significant variability in cGMP response in no compound wells or variation in maximal responses across plates, no constraints were imposed.
row,SMILES,EC50
1,"Cc1cc(C#N)c(F)cc1Cc1nc(-c2ncc(F)c(O)n2)cn2c(F)cnc12 [Compound I-4, 2-fluoro-4-((3-fluoro-6-(5-fluoro-4-hydroxypyrimidin-2-yl)imidazo[1,2-a]pyrazin-8-yl)methyl)-5-methylbenzonitrile]",> 5 µM
2,"Cc1cnc2c(Cc3cc(F)c(Cl)cc3F)nc(-c3nc(O)c(F)c(O)n3)cn12 [Compound I-6, 2-(8-(4-chloro-2,5-difluorobenzyl)-3-methylimidazo[1,2-a]pyrazin-6-yl)-5-fluoropyrimidine-4,6-diol]",> 5 µM
3,"COc1cnc2c(Cc3cc(F)c(C)cc3F)nc(-c3ncc(C)c(O)n3)cn12 [Compound I-7, 2-(8-(2,5-difluoro-4-methylbenzyl)-3-methoxyimidazo[1,2-a]pyrazin-6-yl)-5-methylpyrimidin-4-ol]",> 5 µM
4,"CC(=O)c1cnc2c(Cc3cc(F)ccc3F)nc(-c3nc(C)c(F)c(O)n3)cn12 [Compound I-8, 1-(8-(2,5-difluorobenzyl)-6-(5-fluoro-4-hydroxy-6-methylpyrimidin-2-yl)imidazo[1,2-a]pyrazin-3-yl)ethan-1-one]",> 5 µM
5,"CC(=O)c1ccc(Cc2nc(-c3ncc(F)c(O)n3)cn3c(Cl)cnc23)c(F)c1 [Compound I-9, 1-(4-((3-chloro-6-(5-fluoro-4-hydroxypyrimidin-2-yl)imidazo[1,2-a]pyrazin-8-yl)methyl)-3-fluorophenyl)ethan-1-one]",> 5 µM
6,"CSc1cnc2c(Cc3cc(F)c(C)cc3F)nc(-c3nc(O)c(C)c(Br)n3)cn12 [Compound I-12, 6-bromo-2-(8-(2,5-difluoro-4-methylbenzyl)-3-(methylthio)imidazo[1,2-a]pyrazin-6-yl)-5-methylpyrimidin-4-ol]",> 5 µM
7,"Cc1cc(F)c(Cc2nc(-c3nc(O)cc(CCO)n3)cn3ccnc23)cc1F [Compound I-26, 2-(8-(2,5-difluoro-4-methylbenzyl)imidazo[1,2-a]pyrazin-6-yl)-6-(2-hydroxyethyl)pyrimidin-4-ol]",> 5 µM
8,"COCc1nc(-c2cn3ccnc3c(Cc3cc(F)c(C)cc3F)n2)nc(O)c1OC [Compound I-27, 2-(8-(2,5-difluoro-4-methylbenzyl)imidazo[1,2-a]pyrazin-6-yl)-5-methoxy-6-(methoxymethyl)pyrimidin-4-ol]",> 5 µM
9,"Cc1nc(-c2cn3c(C(C)O)cnc3c(Cc3cc(F)ccc3F)n2)nc(O)c1F (centres unmarked) [Compound I-31, 2-(8-(2,5-difluorobenzyl)-3-(1-hydroxyethyl)imidazo[1,2-a]pyrazin-6-yl)-5-fluoro-6-methylpyrimidin-4-ol]",> 5 µM
10,"COc1cnc2c(Cc3cc(F)c(C#N)cc3C)nc(-c3ncc(F)c(O)n3)cn12 [Compound I-32, 2-fluoro-4-((6-(5-fluoro-4-hydroxypyrimidin-2-yl)-3-methoxyimidazo[1,2-a]pyrazin-8-yl)methyl)-5-methylbenzonitrile]",> 5 µM
11,"Cc1cc(F)c(Cc2nc(-c3ncc(F)c(O)n3)cn3c(CO)cnc23)cc1F [Compound I-35, 2-(8-(2,5-difluoro-4-methylbenzyl)-3-(hydroxymethyl)imidazo[1,2-a]pyrazin-6-yl)-5-fluoropyrimidin-4-ol]",1 to 5 µM
12,"CCOCc1nc(-c2cn3ncnc3c(Cc3cc(F)c(C)cc3F)n2)nc(O)c1F [Compound I-44, 2-(8-(2,5-difluoro-4-methylbenzyl)-[1,2,4]triazolo[1,5-a]pyrazin-6-yl)-6-(ethoxymethyl)-5-fluoropyrimidin-4-ol]",> 5 µM

# More lines, now with the values ahead:
row,EC50,SMILES
1,≤ 0.1 µM,"N#Cc1cn2cc(-c3ncc(F)c(O)n3)nc(Cc3cc(F)c(F)cc3F)c2n1 [Compound I-3, 6-(5-fluoro-4-hydroxypyrimidin-2-yl)-8-(2,4,5-trifluorobenzyl)imidazo[1,2-a]pyrazine-2-carbonitrile]"
2,1 to 5 µM,"Cc1cc(F)c(Cc2nc(-c3nc(O)c(F)c(CF)n3)cn3ncnc23)cc1F [Compound I-5, 2-(8-(2,5-difluoro-4-methylbenzyl)-[1,2,4]triazolo[1,5-a]pyrazin-6-yl)-5-fluoro-6-(fluoromethyl)pyrimidin-4-ol]"
3,≤ 0.1 µM,"Cc1cc(F)c(Cc2nc(-c3ncc(C#N)c(O)n3)cn3c(F)cnc23)cc1F [Compound I-17, 2-(8-(2,5-difluoro-4-methylbenzyl)-3-fluoroimidazo[1,2-a]pyrazin-6-yl)-4-hydroxypyrimidine-5-carbonitrile]"
4,0.1 to 1 µM,"COc1c(O)nc(-c2cn3ccnc3c(Cc3cc(F)c(C)cc3F)n2)nc1CF [Compound I-21, 2-(8-(2,5-difluoro-4-methylbenzyl)imidazo[1,2-a]pyrazin-6-yl)-6-(fluoromethyl)-5-methoxypyrimidin-4-ol]"
5,0.1 to 1 µM,"COCc1nc(-c2cn3ccnc3c(Cc3cc(F)c(C)cc3F)n2)nc(O)c1F [Compound I-22, 2-(8-(2,5-difluoro-4-methylbenzyl)imidazo[1,2-a]pyrazin-6-yl)-5-fluoro-6-(methoxymethyl)pyrimidin-4-ol]"
6,0.1 to 1 µM,"CC(=O)c1cnc(-c2cn3ccnc3c(Cc3cc(F)c(C)cc3F)n2)nc1O [Compound I-24, 1-(2-(8-(2,5-difluoro-4-methylbenzyl)imidazo[1,2-a]pyrazin-6-yl)-4-hydroxypyrimidin-5-yl)ethan-1-one]"
7,0.1 to 1 µM,"Cc1cc(F)c(Cc2nc(-c3ncc(CO)c(O)n3)cn3ccnc23)cc1F [Compound I-25, 2-(8-(2,5-difluoro-4-methylbenzyl)imidazo[1,2-a]pyrazin-6-yl)-5-(hydroxymethyl)pyrimidin-4-ol]"
8,0.1 to 1 µM,"Cc1cc(F)c(Cc2nc(-c3ncc(C(C)O)c(O)n3)cn3ccnc23)cc1F (centres unmarked) [Compound I-28, 2-(8-(2,5-difluoro-4-methylbenzyl)imidazo[1,2-a]pyrazin-6-yl)-5-(1-hydroxyethyl)pyrimidin-4-ol]"
9,0.1 to 1 µM,"COc1cnc2c(Cc3cc(F)c(C)cc3F)nc(-c3ncc(Cl)c(O)n3)cn12 [Compound I-29, 5-chloro-2-{8-[(2,5-difluoro-4-methylphenyl)methyl]-3-methoxyimidazo[1,2-a]pyrazin-6-yl}pyrimidin-4-ol]"
10,1 to 5 µM,"CCc1cc(O)nc(-c2cn3ccnc3c(Cc3cc(F)c(C)cc3F)n2)n1 [Compound I-30, 2-{8-[(2,5-difluoro-4-methylphenyl)methyl]imidazo[1,2-a]pyrazin-6-yl}-6-ethylpyrimidin-4-ol]"
11,0.1 to 1 µM,"Cc1cc(F)c(Cc2nc(-c3nc(O)c(F)c(CF)n3)cn3ccnc23)cc1F [Compound I-45, 2-(8-(2,5-difluoro-4-methylbenzyl)imidazo[1,2-a]pyrazin-6-yl)-5-fluoro-6-(fluoromethyl)pyrimidin-4-ol]"
